From patent US10857146B2, “Method for preventing or treating tumor diseases with a combination of tyrosine kinase inhibitor and CDK4/6 inhibitor” (Jiangsu Hengrui Medicine Co., Ltd., priority 2018, dated 2020)

Tests used:
[1] = test system: C019 (HER2 inhibitor-sensitive gastric cancer PDX model); test: Drug resistance test in HER2 inhibitor-sensitive gastric cancer PDX model (C019); assay type: in vivo; conditions: C019 mice, 40 mg/kg intragastrically once a day
Text: (§1) A large-scale patient-derived tumor xenograft (PDX) model was constructed with a small amount of advanced gastric cancer tissue obtained by real-time endoscopic biopsy, thereby establishing a PDX tissue library. The PDX tissue was taken from the PDX tissue library, revived and inoculated subcutaneously into the mice. […] The tumor tissue was separated, and re-inoculated into new mice. […] C019 represents the mice one month after subcutaneous inoculation of the revived PDX tissue, S019 represents the mice two weeks after the administration of the compound of formula (I) at a single dose of 20 mg/kg, and R019 represents the mice three months after the administration of the compound of formula (I) in a single dose of 40 mg/kg.
Protocol of the drug resistance test: the inhibitor group was administrated with the compound of formula (I) (intragastrically, once a day, in a single dose of 40 mg/kg), and the control group was administrated with an equal volume of normal saline. The tumor volume was measured every three days. The result of drug sensitivity of C019 and R019 models is shown in FIG. 1 (average value of five mice).

[2] = test system: R019 (HER2 inhibitor-resistant gastric cancer PDX model); test: Drug resistance test and combination administration in HER2 inhibitor-resistant gastric cancer PDX model (R019); assay type: in vivo; conditions: R019 mice, 40 mg/kg intragastrically once a day
[3] = test system: advanced gastric cancer PDX tissue; test: Construction of HER2 inhibitor-resistant PDX model by prolonged administration; assay type: in vivo, mice
Text: as §1

CCOc1cc2ncc(C#N)c(Nc3ccc(OCc4ccccn4)c(Cl)c3)c2cc1NC(=O)/C=C/[C@H]1CCCN1C [compound of formula (I)]
drug sensitivity of the model [1]: highly sensitive | tumor inhibition rate ([1]; average value of five mice): > 100% | drug sensitivity of the model [2]: high resistance | tumor response after prolonged administration ([3]; 20 mg/kg intragastrically once a day for three months): resistance | tumor response after prolonged administration ([3]; re-inoculated tumor, 40 mg/kg intragastrically once a day for three months): complete resistance
